# Legend:
# mice = assay: acute toxicity (LD50), intraperitoneal administration; assay type: in vivo; settings: mice (male, 20 g)
# Excerpt: Representative LD50 values, for example, for N^2 -(5,6,7,8-tetrahydro-1-naphthylsulfonyl)-N-(2-methoxyethyl)glycine, N^2 -(7-methyl-2-naphthylsulfonyl)-N-butylglycine and N^2 -(6,7-dimethyl-1-naphthylsulfonyl)-N-(2-methoxyethyl)glycine are above 1,500 milligrams per kilogram, respectively.
# thrombin = target: T1, thrombin (Bos taurus, UniProt P00735); assay: fibrinogen coagulation time; assay type: biochemical; settings: bovine fibrinogen, thrombin 5 units/ml, borate saline buffer pH 7.4, 25° C; normal coagulation time 50-55 seconds
# T1 construct: purchased Mochida Pharmaceutical Co., Ltd
# Procedure: The measurement of the fibrinogen coagulation time was conducted as follows:
# Immediately after mixing, the reaction mixture was transferred from the ice bath to a bath maintained at 25° C. Coagulation times were taken as the period between the time of transference to the 25° C bath and the time of the first appearance of fibrin threads. […] The term "concentration required to prolong the coagulation time by a factor of two" is the concentration of an active ingredient required to prolong the normal coagulation time 50-55 seconds to 100-110 seconds.
SMILES,acute toxicity LD50 (mice),Concentration required to prolong the coagulation time by a factor of two (thrombin)
"CCCCNC(=O)[C@H](CCCNC(=N)N)NS(=O)(=O)c1cccc2c(N(C)C)cccc12 [N^2 -dansyl-N-butyl-L-argininamide, reference compound]",75 milligrams per kilogram,–
"CCCCN(C)C(=O)[C@H](CCCNC(=N)N)NS(=O)(=O)c1cccc2c(N(C)C)cccc12 [N^2 -dansyl-N-methyl-N-butyl-L-argininamide, reference compound]",70 milligrams per kilogram,–
"CCCCN(CC(=O)O)C(=O)[C@H](CCCNC(=N)N)NS(=O)(=O)c1cccc2c1CCCC2 [Sample 1, N^2-(5,6,7,8-tetrahydro-1-naphthylsulfonyl)-L-arginyl-N-butylglycine]",–,20 µM
"COCCN(CC(=O)O)C(=O)[C@H](CCCNC(=N)N)NS(=O)(=O)c1cccc2c1CCCC2 [Sample 3, N^2-(5,6,7,8-tetrahydro-1-naphthylsulfonyl)-L-arginyl-N-(2-methoxyethyl)glycine]","above 1,500 milligrams per kilogram",10 µM
"N=C(N)NCCC[C@H](NS(=O)(=O)c1ccc2c(c1)CCCC2)C(=O)N(CC(=O)O)Cc1ccccc1 [Sample 4, N^2-(5,6,7,8-tetrahydro-2-naphthylsulfonyl)-L-arginyl-N-benzylglycine]",–,30 µM
"CCCCN(CC(=O)O)C(=O)[C@H](CCCNC(=N)N)NS(=O)(=O)c1ccc2ccc(C)cc2c1 [Sample 14, N^2-(7-methyl-2-naphthylsulfonyl)-L-arginyl-N-butylglycine]","above 1,500 milligrams per kilogram",0.3 µM
"COCCN(CC(=O)O)C(=O)[C@H](CCCNC(=N)N)NS(=O)(=O)c1ccc2ccc(C)cc2c1 [Sample 15, N^2-(7-methyl-2-naphthylsulfonyl)-L-arginyl-N-(2-methoxyethyl)glycine]",–,0.2 µM
"Cc1ccc2ccc(S(=O)(=O)N[C@@H](CCCNC(=N)N)C(=O)N(CC(=O)O)CC3CCCCC3)cc2c1 [Sample 17, N^2-(7-methyl-2-naphthylsulfonyl)-L-arginyl-N-cyclohexylmethylglycine]",–,14 µM
"COCCN(CC(=O)O)C(=O)[C@H](CCCNC(=N)N)NS(=O)(=O)c1cccc2ccc(C)cc12 [Sample 22, N^2-(7-methyl-1-naphthylsulfonyl)-L-arginyl-N-(2-methoxyethyl)glycine]",–,20 µM
"COCCN(CC(=O)O)C(=O)[C@H](CCCNC(=N)N)NS(=O)(=O)c1cccc2cc(C)c(C)cc12 [Sample 23, N^2-(6,7-dimethyl-1-naphthylsulfonyl)-L-arginyl-N-(2-methoxyethyl)glycine]","above 1,500 milligrams per kilogram",10 µM
"CCCCN(CC(=O)O)C(=O)[C@H](CCCNC(=N)N)NS(=O)(=O)c1cccc2c(N(C)C)cccc12 [Sample 24, N^2-(5-dimethylamino-1-naphthylsulfonyl)-L-arginyl-N-butylglycine]",–,4 µM

# Reference: patent US4073891A, “N^2 -Arylsulfonyl-L-argininamides and the pharmaceutically acceptable salts thereof” (Mitsubishi Chemical Industries Limited, priority 1974, dated 1978)
